Measured values: US9609868B2, “Alkoximino-substituted anthranilic acid diamides as pesticides” (BAYER CROPSCIENCE AKTIENGESELLSCHAFT, priority 2013, dated 2017)

Assays:
[1] = log P by HPLC on reversed-phase column (C18), EEC directive 79/831 Annex V.A8; assay type: physicochemical; conditions: HPLC reversed-phase C18, 43° C., data refer to the E isomer
Method: The log P values reported in the tables and Preparation Examples above were determined in accordance with EEC directive 79/831 Annex V.A8 by HPLC (High Performance Liquid Chromatography) using a reversed-phase column (C18). Temperature 43° C. The calibration is effected with unbranched alkan-2-ones (having 3 to 16 carbon atoms), for which the log P values are known.

Myzus persicae = Myzus persicae - spray test (MYZUPE); assay type: in vivo; conditions: Chinese cabbage leaf disks
Method: Myzus persicae—Spray Test (MYZUPE)
Solvent: 78 parts by weight of acetone • • 1.5 parts by weight of dimethylformamide
(§1) Emulsifier: 0.5 parts by weight of alkylaryl polyglycol ether
(§2) To produce a suitable active compound preparation, 1 part by weight of active compound is mixed with the stated amounts of solvent and emulsifier, and the concentrate is diluted with emulsifier-containing water to the desired concentration.
Disks of Chinese cabbage leaves (Brassica pekinensis) infested by all stages of the green peach aphid (Myzus persicae) are sprayed with an active compound preparation of the desired concentration.
After the desired period of time, the efficacy in % is determined. 100% means that all the aphids have been killed; 0% means that none of the aphids have been killed.

Phaedon cochleariae = Phaedon cochleariae - spray test (PHAECO); assay type: in vivo; conditions: application rate 100 g/ha, Chinese cabbage leaf disks
Method: Phaedon cochleariae—Spray Test (PHAECO)
(§3) Solvent: 78.0 parts by weight of acetone • • 1.5 parts by weight of dimethylformamide
as §1, §2
After the desired period of time, the efficacy in % is determined. 100% means that all the beetle larvae have been killed; 0% means that no beetle larvae have been killed.

Spodoptera frugiperda = Spodoptera frugiperda - spray test (SPODFR); assay type: in vivo; conditions: application rate 100 g/ha, maize leaf disks
Method: Spodoptera frugiperda—Spray Test (SPODFR)
as §3, §1, §2
Leaf disks of maize (Zea mays) are sprayed with an active compound preparation of the desired concentration and, after drying, populated with caterpillars of the armyworm (Spodoptera frugiperda).
After the desired period of time, the efficacy in % is determined. 100% means that all the caterpillars have been killed; 0% means that no caterpillars have been killed.

## CCNC(=O)c1cc(C=NOC)cc(C)c1NC(=O)c1cc(OC)nn1-c1ncccc1Cl [C-47]
[1]; Table C
  log p: 2.41
Myzus persicae; application rate 100 g/ha
  efficacy (aphids killed): 100%
Phaedon cochleariae
  efficacy (beetle larvae killed): 100%
Spodoptera frugiperda
  efficacy (caterpillars killed): 100%

## CON=Cc1cc(C)c(NC(=O)c2cc(C(F)(F)F)nn2-c2ncccc2Cl)c(C(=O)NC2C[S+]([O-])C2)c1 (mixture of isomers) [B-05]
[1]; Table B
  log p: 2.51
Myzus persicae; application rate 100 g/ha
  efficacy (aphids killed): 90%
Phaedon cochleariae
  efficacy (beetle larvae killed): 100%
Spodoptera frugiperda
  efficacy (caterpillars killed): 100%

## CON=Cc1cc(C)c(NC(=O)c2cc(CF)nn2-c2ncccc2Cl)c(C(=O)NNC(=O)OC)c1 (mixture of isomers) [A-44]
[1]; Table A
  log p: 2.02
Myzus persicae; application rate 100 g/ha
  efficacy (aphids killed): 90%
Phaedon cochleariae
  efficacy (beetle larvae killed): 100%
Spodoptera frugiperda
  efficacy (caterpillars killed): 100%

## CCOc1cc(C(=O)Nc2c(C)cc(C=NOC)cc2C(=O)NC(C)C2CC2)n(-c2ncccc2Cl)n1 (centres unmarked) [C-27]
[1]; Table C
  log p: 3.38
Myzus persicae; application rate 100 g/ha
  efficacy (aphids killed): 90%
Phaedon cochleariae
  efficacy (beetle larvae killed): 100%
Spodoptera frugiperda
  efficacy (caterpillars killed): 100%

## CON=Cc1cc(C)c(NC(=O)c2cc(OCC(F)F)nn2-c2ncccc2Cl)c(C(=O)NC(C)(C)C)c1 [C-21]
[1]; Table C
  log p: 3.43
Myzus persicae; application rate 100 g/ha
  efficacy (aphids killed): 100%
Phaedon cochleariae
  efficacy (beetle larvae killed): 83%
Spodoptera frugiperda
  efficacy (caterpillars killed): 100%

## CON=Cc1cc(C)c(NC(=O)c2cc(Br)nn2-c2ncccc2Cl)c(C(=O)NNC(=O)OC(C)C)c1 [A-06]
[1]; Table A
  log p: 2.88
Phaedon cochleariae
  efficacy (beetle larvae killed): 100%
Spodoptera frugiperda
  efficacy (caterpillars killed): 100%

## CCOc1cc(C(=O)Nc2c(C)cc(C=NOC)cc2C(=O)NC)n(-c2ncccc2Cl)n1 [C-10]
[1]; Table C
  log p: 2.48
Myzus persicae; application rate 100 g/ha
  efficacy (aphids killed): 100%
Phaedon cochleariae
  efficacy (beetle larvae killed): 100%
Spodoptera frugiperda
  efficacy (caterpillars killed): 100%

## CON=Cc1cc(C)c(NC(=O)c2cc(OC)nn2-c2ncccc2Cl)c(C(=O)NC(C)C)c1 (mixture of isomers) [C-32]
[1]; Table C
  log p: 3.22
Myzus persicae; application rate 100 g/ha
  efficacy (aphids killed): 90%
Phaedon cochleariae
  efficacy (beetle larvae killed): 100%
Spodoptera frugiperda
  efficacy (caterpillars killed): 100%

## COCCNC(=O)c1cc(C=NOC)cc(C)c1NC(=O)c1cc(CF)nn1-c1ncccc1Cl [C-56]
[1]; Table C
  log p: 2.27
Myzus persicae; application rate 20 g/ha
  efficacy (aphids killed): 90%
Phaedon cochleariae
  efficacy (beetle larvae killed): 100%
Spodoptera frugiperda
  efficacy (caterpillars killed): 100%

## CON=Cc1cc(C)c(NC(=O)c2cc(C(F)(F)F)nn2-c2ncccc2Cl)c(C(=O)NNC(=O)OC(C)C)c1 [A-18]
[1]; Table A
  log p: 3.17
Phaedon cochleariae
  efficacy (beetle larvae killed): 100%
Spodoptera frugiperda
  efficacy (caterpillars killed): 100%

## CNC(=O)c1cc(C=NOC)cc(C)c1NC(=O)c1cc(OC)nn1-c1ncccc1Cl [C-22]
[1]; Table C
  log p: 2.15
Myzus persicae; application rate 100 g/ha
  efficacy (aphids killed): 100%
Phaedon cochleariae
  efficacy (beetle larvae killed): 100%
Spodoptera frugiperda
  efficacy (caterpillars killed): 100%

## CON=Cc1cc(C)c(NC(=O)c2cc(OC)nn2-c2ncccc2Cl)c(C(=O)NC(C)C2CC2)c1 (centres unmarked) [C-25]
[1]; Table C
  log p: 3.02
Myzus persicae; application rate 100 g/ha
  efficacy (aphids killed): 100%
Phaedon cochleariae
  efficacy (beetle larvae killed): 100%
Spodoptera frugiperda
  efficacy (caterpillars killed): 100%

## CON=Cc1cc(C)c(NC(=O)c2cc(C(F)(F)F)nn2-c2ncccc2Cl)c(C(=O)NNS(C)(=O)=O)c1 [A-23]
[1]; Table A
  log p: 2.63
Myzus persicae; application rate 100 g/ha
  efficacy (aphids killed): 100%
Phaedon cochleariae
  efficacy (beetle larvae killed): 100%
Spodoptera frugiperda
  efficacy (caterpillars killed): 100%

## COCC(C)NC(=O)c1cc(C=NOC)cc(C)c1NC(=O)c1cc(C(F)F)nn1-c1ncccc1Cl (centres unmarked) [C-60]
[1]; Table C
  log p: 2.84
Myzus persicae; application rate 100 g/ha
  efficacy (aphids killed): 100%
Phaedon cochleariae
  efficacy (beetle larvae killed): 100%
Spodoptera frugiperda
  efficacy (caterpillars killed): 100%

## CON=Cc1cc(C)c(NC(=O)c2cc(Br)nn2-c2ncccc2Cl)c(C(=O)NC2COC2)c1 (mixture of isomers) [B-03]
[1]; Table B
  log p: 2.44
Myzus persicae; application rate 100 g/ha
  efficacy (aphids killed): 100%
Phaedon cochleariae
  efficacy (beetle larvae killed): 100%
Spodoptera frugiperda
  efficacy (caterpillars killed): 100%

## CON=Cc1cc(C)c(NC(=O)c2cc(OC)nn2-c2ncccc2Cl)c(C(=O)NC(C)C2CC2)c1 (mixture of isomers) [C-31]
[1]; Table C
  log p: 3.66
Phaedon cochleariae
  efficacy (beetle larvae killed): 100%
Spodoptera frugiperda
  efficacy (caterpillars killed): 100%

## CNC(=O)c1cc(C=NOC)cc(C)c1NC(=O)c1cc(OC)nn1-c1ncccc1Cl (mixture of isomers) [C-33]
[1]; Table C
  log p: 2.70
Myzus persicae; application rate 100 g/ha
  efficacy (aphids killed): 90%
Phaedon cochleariae
  efficacy (beetle larvae killed): 100%
Spodoptera frugiperda
  efficacy (caterpillars killed): 100%

## CON=Cc1cc(C)c(NC(=O)c2cc(C(F)(F)F)nn2-c2ncccc2Cl)c(C(=O)N(C)NC(=O)OC(C)C)c1 [A-25]
[1]; Table A
  log p: 3.57
Phaedon cochleariae
  efficacy (beetle larvae killed): 100%
Spodoptera frugiperda
  efficacy (caterpillars killed): 100%

## CON=Cc1cc(C)c(NC(=O)c2cc(C(F)(F)F)nn2-c2ncccc2Cl)c(C(=O)NNC(C)=O)c1 (mixture of isomers) [A-32]
[1]; Table A
  log p: 2.38
Myzus persicae; application rate 100 g/ha
  efficacy (aphids killed): 90%
Phaedon cochleariae
  efficacy (beetle larvae killed): 100%
Spodoptera frugiperda
  efficacy (caterpillars killed): 100%

## CON=Cc1cc(C)c(NC(=O)c2cc(Br)nn2-c2ncccc2Cl)c(C(=O)N(C)NC(=O)OC)c1 [A-03]
[1]; Table A
  log p: 2.74
Phaedon cochleariae
  efficacy (beetle larvae killed): 100%
Spodoptera frugiperda
  efficacy (caterpillars killed): 100%

## CNC(=O)c1cc(C=NOC)cc(C)c1NC(=O)c1cc(OC(C)C)nn1-c1ncccc1Cl [C-65]
[1]; Table C
  log p: 2.75
Phaedon cochleariae
  efficacy (beetle larvae killed): 100%
Spodoptera frugiperda
  efficacy (caterpillars killed): 100%

## CON=Cc1cc(C)c(NC(=O)c2cc(Br)nn2-c2ncccc2Cl)c(C(=O)N(C)NC(C)=O)c1 [A-14]
[1]; Table A
  log p: 2.31
Myzus persicae; application rate 100 g/ha
  efficacy (aphids killed): 90%
Spodoptera frugiperda
  efficacy (caterpillars killed): 100%

## CON=Cc1cc(C)c(NC(=O)c2cc(OC)nn2-c2ncccc2Cl)c(C(=O)NC2CC2)c1 (mixture of isomers) [C-30]
[1]; Table C
  log p: 2.97
Phaedon cochleariae
  efficacy (beetle larvae killed): 100%
Spodoptera frugiperda
  efficacy (caterpillars killed): 100%

## CON=Cc1cc(C)c(NC(=O)c2cc(OC(C)C)nn2-c2ncccc2Cl)c(C(=O)NC2CC2)c1 [C-06]
[1]; Table C
  log p: 2.98
Phaedon cochleariae
  efficacy (beetle larvae killed): 100%
Spodoptera frugiperda
  efficacy (caterpillars killed): 100%

## CON=Cc1cc(C)c(NC(=O)c2cc(C(F)(F)F)nn2-c2ncccc2Cl)c(C(=O)N(C)NS(C)(=O)=O)c1 [A-31]
[1]; Table A
  log p: 2.88
Phaedon cochleariae
  efficacy (beetle larvae killed): 100%
Spodoptera frugiperda
  efficacy (caterpillars killed): 100%

## CCOC(=O)NN(C)C(=O)c1cc(C=NOC)cc(C)c1NC(=O)c1cc(Br)nn1-c1ncccc1Cl [A-10]
[1]; Table A
  log p: 2.97
Myzus persicae; application rate 100 g/ha
  efficacy (aphids killed): 90%
Spodoptera frugiperda
  efficacy (caterpillars killed): 100%

## CON=Cc1cc(C)c(NC(=O)c2cc(OC)nn2-c2ncccc2Cl)c(C(=O)NNC(=O)OC)c1 (mixture of isomers) [A-38]
[1]; Table A
  log p: 2.00
Phaedon cochleariae
  efficacy (beetle larvae killed): 100%
Spodoptera frugiperda
  efficacy (caterpillars killed): 100%

## CON=Cc1cc(C)c(NC(=O)c2cc(CF)nn2-c2ncccc2Cl)c(C(=O)NC2COC2)c1 (mixture of isomers) [B-12]
[1]; Table B
  log p: 2.04
Phaedon cochleariae
  efficacy (beetle larvae killed): 100%

## CON=Cc1cc(C)c(NC(=O)c2cc(OCC(F)F)nn2-c2ncccc2Cl)c(C(=O)NC(C)C2CC2)c1 (centres unmarked) [C-18]
[1]; Table C
  log p: 3.39
Myzus persicae; application rate 100 g/ha
  efficacy (aphids killed): 90%
Spodoptera frugiperda
  efficacy (caterpillars killed): 100%

## CON=Cc1cc(C)c(NC(=O)c2cc(OCC(F)F)nn2-c2ncccc2Cl)c(C(=O)NC2COC2)c1 (mixture of isomers) [B-09]
[1]; Table B
  log p: 2.44
Myzus persicae; application rate 100 g/ha
  efficacy (aphids killed): 100%
Spodoptera frugiperda
  efficacy (caterpillars killed): 100%
